# Measured values from patent US20220213047A1, “CARBONIC ANHYDRASE INHIBITORS FOR TREATMENT OF NEISSERIA GONORRHOEAE INFECTION” (Purdue Research Foundation, priority 2021, published 2022).
# “Also recorded” adds a separate entry of the source.
# Legend:
# L. crispatus = assay: MIC50 against pathogenic and commensal bacteria: L. crispatus; format: cell-based; details: Lactobacillus crispatus; L. crispatus (2 strains); normal
# Source text: (§1) We have shown that CAIs display a narrow-spectrum of activity (Table 6). We have previously shown that CAIs have potential as anti-enterococcal agents for decolonization of the gut and treating systemic vancomycin-resistant enterococci (VRE) infections without affecting commensal strains common in the human microbiome or other pathogenic bacteria. […] The extremely narrow spectrum of this class of inhibitors would be a positive for clinical use as the molecules: 1) would not have deleterious effects on normal microbiota, and 2) would have less opportunity for resistance to arise to other important pathogenic strains aside from VRE.
# L. gasseri = assay: MIC50 against pathogenic and commensal bacteria: L. gasseri; format: cell-based; details: Lactobacillus gasseri; L. gasseri (4 strains); normal
# Source text: as §1
# L. rhamnosus = assay: MIC50 against pathogenic and commensal bacteria: L. rhamnosus; format: cell-based; details: Lacticaseibacillus rhamnosus; L. rhamnosus (1 strain); normal
# Source text: as §1
# E. coli = assay: MIC50 against pathogenic and commensal bacteria: E. coli; format: cell-based; details: Escherichia coli; E. coli (8 strains); normal
# Source text: as §1
# S. pneumoniae = assay: MIC50 against pathogenic and commensal bacteria: S. pneumoniae; format: cell-based; details: Streptococcus pneumoniae; S. pneumoniae (4 strains); normal
# Source text: as §1
# N. gonorrhoeae [1] = assay: MIC against N. gonorrhoeae clinical isolates, normal and CO2 conditions; format: cell-based; details: Neisseria gonorrhoeae
# Description: (§2) These tests were performed in normal culture conditions with standard CO2 levels and in CO2 (5% in incubator) conditions.
# N. gonorrhoeae [2] = assay: Multi-step resistance selection; format: cell-based; details: over ten passages
# Source text: Frequency of mutation—multi-step mutation—We investigated N. gonorrhoeae's ability to develop resistance to CAIs using the multi-step resistance selection experiment^58.
# N. gonorrhoeae cultures that grew at the highest concentrations of the compound are used as an inoculum for the subsequent culture.
# N. gonorrhoeae [3] = assay: Post-antibiotic effect (PAE); format: cell-based; details: after exposure to 10×MIC for 1 hour
# N. gonorrhoeae [4] = assay: MIC by agar dilution on a larger panel of N. gonorrhoeae strains; format: cell-based, Neisseria gonorrhoeae; details: for MIC / MIC50 / MIC90: Neisseria gonorrhoeae; for Original MIC: in brackets in Table 8
# Description: as §2
# L. johnsonii = assay: MIC50 against pathogenic and commensal bacteria: L. johnsonii; format: cell-based; details: Lactobacillus johnsonii; L. johnsonii (1 strain); normal
# Source text: as §1
# Enterococcus = assay: MIC50 against pathogenic and commensal bacteria: Enterococcus; format: cell-based; details: Enterococcus (49 strains); normal
# Source text: as §1
# [5] = system: intracellular N. gonorrhoeae; assay: Intracellular clearance of N. gonorrhoeae in infected endocervical cells (End1/E6E7); format: cell-based; details: 5×MIC, 24 hours
# Source text: Intracellular clearance of N. gonorrhoeae—N. gonorrhoeae is known to invade epithelial cells of the genital tract and cross the epithelial barrier into the subepithelial space^59. Previous studies have shown that N. gonorrhoeae can survive inside host cells and pass epithelial cell layers (a key step in causing disseminated infections)^60,61. Therefore, a drug candidate must also be able to kill intracellular N. gonorrhoeae in order to be an effective therapeutic. Also, we were concerned that CAIs have reduced activity in high-CO2 conditions and may not be suitable to treat intracellular infection. Thus, we examined CAIs ability to reduce the burden of intracellular N. gonorrhoeae present in infected endocervical cells^56.
# L. jensenii = assay: MIC50 against pathogenic and commensal bacteria: L. jensenii; format: cell-based; details: Lactobacillus jensenii; L. jensenii (3 strains); normal
# Source text: as §1
# S. epidermidis = assay: MIC50 against pathogenic and commensal bacteria: S. epidermidis; format: cell-based; details: Staphylococcus epidermidis; S. epidermidis (3 strains); normal
# Source text: as §1
# E. coli TolC mutant = assay: MIC50 against pathogenic and commensal bacteria: E. coli TolC mutant; format: cell-based; details: Escherichia coli
# Source text: as §1
# [6] = strain panel of Table 9, CO2 (5% CO2 containing air)
smiles,measurement,setting,value
CCOc1ccc2nc(S(N)(=O)=O)sc2c1 [Ethoxzolamide],MIC50,L. crispatus,> 256 µg/mL
same,MIC50,L. gasseri,> 256 µg/mL
same,MIC50,L. rhamnosus,> 256 µg/mL
same,MIC50,E. coli,> 256 µg/mL
same,MIC50,S. pneumoniae,> 512 µg/mL
same,MIC,"N. gonorrhoeae [1]; N. gonorrhoeae 178, Non CO2 environment",≤ 0.5 µg/mL
same,MIC,"N. gonorrhoeae [1]; N. gonorrhoeae 178, normal growth environment (with CO2)",> 64 µg/mL
same,MIC,"N. gonorrhoeae [1]; N. gonorrhoeae 181, Non CO2 environment",≤ 0.5 µg/mL
same,MIC,"N. gonorrhoeae [1]; N. gonorrhoeae 181, normal growth environment (with CO2)",> 64 µg/mL
same,MIC,"N. gonorrhoeae [1]; N. gonorrhoeae 194, Non CO2 environment",≤ 0.5 µg/mL
same,MIC,"N. gonorrhoeae [1]; N. gonorrhoeae 194, normal growth environment (with CO2)",> 64 µg/mL
same,increase in MIC,N. gonorrhoeae [2],no increase
same,PAE,N. gonorrhoeae [3]; Ng 181,10 h
same,PAE,N. gonorrhoeae [3]; Ng 186,10 h
same,PAE,N. gonorrhoeae [3]; Ng 194,10 h
same,PAE,N. gonorrhoeae [3]; Ng 198,10 h
same,PAE,N. gonorrhoeae [3]; clinical isolates of N. gonorrhoeae,10 h
same,activity against N. gonorrhoeae under CO2 conditions,"N. gonorrhoeae [4]; CO2 conditions versus standard conditions, listed as EZM",did not maintain any activity; also recorded: significant reduction of activity
same,MIC,"N. gonorrhoeae [4]; N. gonorrhoeae 165, CO2 (5% CO2 containing air), read-out: MIC",> 128 µg/mL
same,MIC,"N. gonorrhoeae [4]; N. gonorrhoeae 166, CO2 (5% CO2 containing air), read-out: MIC",> 128 µg/mL
same,MIC,"N. gonorrhoeae [4]; N. gonorrhoeae 166, Non CO2 (ambient air), read-out: MIC",0.06 µg/mL
same,MIC,"N. gonorrhoeae [4]; N. gonorrhoeae 167, CO2 (5% CO2 containing air), read-out: MIC",64 µg/mL
same,MIC,"N. gonorrhoeae [4]; N. gonorrhoeae 167, Non CO2 (ambient air), read-out: MIC",0.25 µg/mL
same,MIC,"N. gonorrhoeae [4]; N. gonorrhoeae 170, CO2 (5% CO2 containing air), read-out: MIC",> 128 µg/mL
same,MIC,"N. gonorrhoeae [4]; N. gonorrhoeae 170, Non CO2 (ambient air), read-out: MIC",0.06 µg/mL
same,MIC,"N. gonorrhoeae [4]; N. gonorrhoeae 171, CO2 (5% CO2 containing air), read-out: MIC",64 µg/mL
same,MIC,"N. gonorrhoeae [4]; N. gonorrhoeae 173, CO2 (5% CO2 containing air), read-out: MIC",128 µg/mL
same,MIC,"N. gonorrhoeae [4]; N. gonorrhoeae 174, CO2 (5% CO2 containing air), read-out: MIC",> 128 µg/mL
same,MIC,"N. gonorrhoeae [4]; N. gonorrhoeae 175, CO2 (5% CO2 containing air), read-out: MIC",> 128 µg/mL
same,MIC,"N. gonorrhoeae [4]; N. gonorrhoeae 175, Non CO2 (ambient air), read-out: MIC",0.25 µg/mL
same,MIC,"N. gonorrhoeae [4]; N. gonorrhoeae 176, CO2 (5% CO2 containing air), read-out: MIC",128 µg/mL
same,MIC,"N. gonorrhoeae [4]; N. gonorrhoeae 176, Non CO2 (ambient air), read-out: MIC",0.25 µg/mL
same,MIC,"N. gonorrhoeae [4]; N. gonorrhoeae 177, CO2 (5% CO2 containing air), read-out: MIC",16 µg/mL
same,MIC,"N. gonorrhoeae [4]; N. gonorrhoeae 177, Non CO2 (ambient air), read-out: MIC",0.5 µg/mL
same,MIC,"N. gonorrhoeae [4]; N. gonorrhoeae 178, CO2 (5% CO2 containing air), read-out: MIC",> 128 µg/mL
same,MIC,"N. gonorrhoeae [4]; N. gonorrhoeae 178, Non CO2 (ambient air), read-out: MIC",0.06 µg/mL
same,MIC,"N. gonorrhoeae [4]; N. gonorrhoeae 179, CO2 (5% CO2 containing air), read-out: MIC",> 128 µg/mL
same,MIC,"N. gonorrhoeae [4]; N. gonorrhoeae 179, Non CO2 (ambient air), read-out: MIC",0.25 µg/mL
same,MIC,"N. gonorrhoeae [4]; N. gonorrhoeae 180, CO2 (5% CO2 containing air), read-out: MIC",> 128 µg/mL
same,MIC,"N. gonorrhoeae [4]; N. gonorrhoeae 181, CO2 (5% CO2 containing air), read-out: MIC",64 µg/mL
same,MIC,"N. gonorrhoeae [4]; N. gonorrhoeae 181, Non CO2 (ambient air), read-out: MIC",0.25 µg/mL
same,MIC,"N. gonorrhoeae [4]; N. gonorrhoeae 182, CO2 (5% CO2 containing air), read-out: MIC",64 µg/mL
same,MIC,"N. gonorrhoeae [4]; N. gonorrhoeae 182, Non CO2 (ambient air), read-out: MIC",0.25 µg/mL
same,MIC,"N. gonorrhoeae [4]; N. gonorrhoeae 183, CO2 (5% CO2 containing air), read-out: MIC",32 µg/mL
same,MIC,"N. gonorrhoeae [4]; N. gonorrhoeae 184, CO2 (5% CO2 containing air), read-out: MIC",32 µg/mL
same,MIC,"N. gonorrhoeae [4]; N. gonorrhoeae 184, Non CO2 (ambient air), read-out: MIC",0.25 µg/mL
same,MIC,"N. gonorrhoeae [4]; N. gonorrhoeae 185, CO2 (5% CO2 containing air), read-out: MIC",64 µg/mL
same,MIC,"N. gonorrhoeae [4]; N. gonorrhoeae 186, CO2 (5% CO2 containing air), read-out: MIC",64 µg/mL
same,MIC,"N. gonorrhoeae [4]; N. gonorrhoeae 188, CO2 (5% CO2 containing air), read-out: MIC",64 µg/mL
same,MIC,"N. gonorrhoeae [4]; N. gonorrhoeae 188, Non CO2 (ambient air), read-out: MIC",0.06 µg/mL
same,MIC,"N. gonorrhoeae [4]; N. gonorrhoeae 191, CO2 (5% CO2 containing air), read-out: MIC",> 128 µg/mL
same,MIC,"N. gonorrhoeae [4]; N. gonorrhoeae 191, Non CO2 (ambient air), read-out: MIC",0.06 µg/mL
same,MIC,"N. gonorrhoeae [4]; N. gonorrhoeae 193, CO2 (5% CO2 containing air), read-out: MIC",64 µg/mL
same,MIC,"N. gonorrhoeae [4]; N. gonorrhoeae 194, CO2 (5% CO2 containing air), read-out: MIC",64 µg/mL
same,MIC,"N. gonorrhoeae [4]; N. gonorrhoeae 194, Non CO2 (ambient air), read-out: MIC",0.25 µg/mL
same,MIC,"N. gonorrhoeae [4]; N. gonorrhoeae 196, CO2 (5% CO2 containing air), read-out: MIC",> 128 µg/mL
same,MIC,"N. gonorrhoeae [4]; N. gonorrhoeae 197, CO2 (5% CO2 containing air), read-out: MIC",128 µg/mL
same,MIC,"N. gonorrhoeae [4]; N. gonorrhoeae 197, Non CO2 (ambient air), read-out: MIC",0.25 µg/mL
same,MIC,"N. gonorrhoeae [4]; N. gonorrhoeae 198, CO2 (5% CO2 containing air), read-out: MIC",> 128 µg/mL
same,MIC,"N. gonorrhoeae [4]; N. gonorrhoeae 198, Non CO2 (ambient air), read-out: MIC",0.25 µg/mL
same,MIC,"N. gonorrhoeae [4]; N. gonorrhoeae 200, CO2 (5% CO2 containing air), read-out: MIC",> 128 µg/mL
same,MIC,"N. gonorrhoeae [4]; N. gonorrhoeae 200, Non CO2 (ambient air), read-out: MIC",0.25 µg/mL
same,MIC,"N. gonorrhoeae [4]; N. gonorrhoeae 202, CO2 (5% CO2 containing air), read-out: MIC",128 µg/mL
same,MIC,"N. gonorrhoeae [4]; N. gonorrhoeae 202, Non CO2 (ambient air), read-out: MIC",0.06 µg/mL
same,MIC,"N. gonorrhoeae [4]; N. gonorrhoeae 203, CO2 (5% CO2 containing air), read-out: MIC",64 µg/mL
same,MIC,"N. gonorrhoeae [4]; N. gonorrhoeae 205, CO2 (5% CO2 containing air), read-out: MIC",128 µg/mL
same,MIC,"N. gonorrhoeae [4]; N. gonorrhoeae 206, CO2 (5% CO2 containing air), read-out: MIC",> 128 µg/mL
same,MIC,"N. gonorrhoeae [4]; N. gonorrhoeae 207, CO2 (5% CO2 containing air), read-out: MIC",64 µg/mL
same,MIC,"N. gonorrhoeae [4]; N. gonorrhoeae 208, CO2 (5% CO2 containing air), read-out: MIC",> 128 µg/mL
same,MIC,"N. gonorrhoeae [4]; N. gonorrhoeae 209, CO2 (5% CO2 containing air), read-out: MIC",> 128 µg/mL
same,MIC,"N. gonorrhoeae [4]; N. gonorrhoeae 209, Non CO2 (ambient air), read-out: MIC",0.06 µg/mL
same,MIC,"N. gonorrhoeae [4]; N. gonorrhoeae 210, CO2 (5% CO2 containing air), read-out: MIC",64 µg/mL
same,MIC,"N. gonorrhoeae [4]; N. gonorrhoeae 211, CO2 (5% CO2 containing air), read-out: MIC",64 µg/mL
same,MIC,"N. gonorrhoeae [4]; N. gonorrhoeae 211, Non CO2 (ambient air), read-out: MIC",0.5 µg/mL
same,MIC,"N. gonorrhoeae [4]; N. gonorrhoeae 212, CO2 (5% CO2 containing air), read-out: MIC",64 µg/mL
same,MIC,"N. gonorrhoeae [4]; N. gonorrhoeae 212, Non CO2 (ambient air), read-out: MIC",0.25 µg/mL
same,MIC,"N. gonorrhoeae [4]; N. gonorrhoeae 213, CO2 (5% CO2 containing air), read-out: MIC",64 µg/mL
same,MIC,"N. gonorrhoeae [4]; N. gonorrhoeae 214, CO2 (5% CO2 containing air), read-out: MIC",64 µg/mL
same,MIC,"N. gonorrhoeae [4]; N. gonorrhoeae 214, Non CO2 (ambient air), read-out: MIC",0.25 µg/mL
same,MIC50,"N. gonorrhoeae [4]; N. gonorrhoeae (39 strains), CO2 (5% CO2 in the incubator)",> 128 µg/mL
same,MIC50,N. gonorrhoeae [4]; [6],> 128 µg/mL
same,MIC90,N. gonorrhoeae [4]; [6],> 128 µg/mL
same,MIC,"N. gonorrhoeae [4]; strain panel of Table 9, CO2 (5% CO2 containing air), read-out: Modal MIC",> 128 µg/mL
same,MIC90,"N. gonorrhoeae [4]; strain panel of Table 9, Non CO2 (ambient air, standard CO2 conditions)",0.5 µg/mL
same,Original MIC,N. gonorrhoeae [4]; Ng 197,0.25 µg/mL
same,Original MIC,N. gonorrhoeae [4]; Ng 202,0.06 µg/mL
same,MIC50,L. johnsonii,> 256 µg/mL
same,MIC50,Enterococcus,4 µg/mL
same,reduction in N. gonorrhoeae inside infected endocervical cells,[5],5.8 log10
same,MIC50,L. jensenii,> 256 µg/mL
same,MIC50,S. epidermidis,> 256 µg/mL
same,MIC50,E. coli TolC mutant,> 256 µg/mL
